According to US20230165798A1, “MACROCYCLIC LACTONE FORMULATIONS, METHODS OF THEIR PREPARATION AND USE OF THE FORMULATIONS IN TREATING PATHOLOGIES SECONDARY TO OPHTHALMIC PARASITES” (Hovione Scientia, priority 2018, published 2023):

Experiments:
[1] = Visual solubility in artificial sebum; format: physicochemical; settings: 24 h of mixing with a magnetic stirrer at room temperature, same amount of ivermectin
Procedure: Some polymers have a capacity to improve the solubility of the ivermectin in the local region of application.
The sebum with the amorphous ivermectin dispersions remains clear (solubilized) after 24 h of mixing with a magnetic stirrer at room temperature, and without polymers the sebum continued opaque (ivermectin in suspension—not solubilized) after the addiction of the both forms of ivermectin (crystalline or amorphous).

[2] = HPLC assay of ivermectin before and after Gamma irradiation; format: physicochemical
Text: The inventors have also determined that use of the polymer in the amorphous solid dispersion of ivermectin protects the ivermectin from degradation that occurs during Gamma irradiation, heat sterilization or e-beam sterilization. Ophthalmic formulations must be sterilized and Gamma irradiation, heat sterilization or e-beam sterilization are suitable methods for sterilization because other methods, such as filtration, are not suitable for a suspension formulation. The amorphous solid dispersions for Examples 1-3 were tested to determine the extent that the polymer protects the ivermectin during Gamma irradiation. For preliminary tests, the amorphous ivermectin solid dispersions were sterilized by Gamma irradiation at 25 kGy for 22 hours in a Precisa 22 equipment. The ASDs were analyzed by XRPD and HPLC to determine if the Gamma irradiation changed the ivermectin polymorphic form and degradation respectively.
The assay of the ivermectin on the amorphous solid dispersion was performed before, 1 week and 1 month after the application of Gamma irradiation. Preliminary trials of sterilization by gamma irradiation were successfully completed in the solid material of ivermectin alone and ASDs.
(§1) Table 4 provides a summary of the characterizations (HPLC, XRPD and particle size) of ivermectin and of the amorphous solid dispersion of Example 1 (PVP-VA 64), Example 2 (PVP K-30) and Example 3 (HPMC E4M) prior to irradiation and after irradiation. Preliminary trials of sterilization by gamma irradiation were successfully completed in the solid material of ivermectin alone and ASDs. The amorphous form of the ASDs was not affected by gamma irradiation.

demodex = settings: oral ivermectin, 19 subjects, cited from earlier work
[3] = Particle size D90 by laser diffraction before and after Gamma irradiation; format: physicochemical
Procedure: (§2) The solid-state characterization of the spray dried amorphous ivermectin solid dispersions of Examples 1-3 prepared by the traditional spray drying process were evaluated by Scanning Electronic Microscopy (SEM) (Phenom ProX SEM), Differential Scanning calorimetry (DSC) (TA Instruments), Laser diffraction (Sympatec HELOS/RODOS, Germany) employing the rotary feeder and R1 lens, X-Ray Powder Diffraction (Pan Analytical), Raman Spectroscopy (Witec) and High Performance Liquid Chromatography (Waters). FIG. 1 is a scanning electron microscopic picture of the amorphous solid dispersion of Example 1 (ivermectin and PVP-VA-64). FIG. 2 is a scanning electron microscopic image of the amorphous solid dispersion of Example 2 (ivermectin and PVP K-30). FIG. 3 is a scanning electron microscopic picture of the amorphous solid dispersion of Example 3 (ivermectin and HPMC E4M). FIGS. 1-3 are at a magnification of 6000×. FIGS. 4-6 are thermograms of the ASD of Examples 1-3 obtained by differential scanning calorimetry. FIGS. 7-9 are diffractograms of the ASD of Examples 1-3. […] FIGS. 10 and 11 are Raman spectrums for ivermectin, the polymer PVP VA-64 and mixtures of the two (FIG. 10) and ivermectin, the polymer PVP K-30 and mixtures of the two (FIG. 11). […] FIG. 10 includes ratios of ivermectin to PVP VA-64 at ratios of 1:1 and 1:2 and FIG. 11 includes ratios of ivermectin to PVP K-30 at ratios of 1:1, 1:3, and 2:3.
as §1

[4] = XRPD polymorphic form before and after Gamma irradiation; format: physicochemical
Procedure: as §2
The inventors have also determined that use of the polymer in the amorphous solid dispersion of ivermectin protects the ivermectin from degradation that occurs during Gamma irradiation, heat sterilization or e-beam sterilization. Ophthalmic formulations must be sterilized and Gamma irradiation, heat sterilization or e-beam sterilization are suitable methods for sterilization because other methods, such as filtration, are not suitable for a suspension formulation. […] The ASDs were analyzed by XRPD and HPLC to determine if the Gamma irradiation changed the ivermectin polymorphic form and degradation respectively. […]

[5] = tested on: TNF-α, IL-1, and IL-6 (lipopolysaccharide (LPS)-induced cytokines); settings: through NF-κB; cited from earlier work

With ivermectin [Crystalline ivermectin] the “Solubility (visual inspection)” value [1] was “opaque”.

For `CC[C@H](C)[C@H]1O[C@]2(CC[C@@H]1C)C[C@@H]1C[C@@H](C/C=C(\C)[C@@H](O[C@H]3C[C@H](OC)[C@@H](O[C@H]4C[C@H](OC)[C@@H](O)[C@H](C)O4)[C@H](C)O3)[C@@H](C)/C=C/C=C3\CO[C@@H]4[C@H](O)C(C)=C[C@@H](C(=O)O1)[C@]34O)O2` [IVM, ivermectin], the “% API (After: 1 month)” value ([2]; HPLC, 1 month after Gamma irradiation at 25 kGy for 22 hours) was 84.3%, the “% API (After: 1 week)” value ([2]; HPLC, 1 week after Gamma irradiation at 25 kGy for 22 hours) was 86.9% and the “% API (Before)” value ([2]; HPLC, before Gamma irradiation) was 95.2%. The “HPLC (Assay IVM) After irradiation (T = 1 month)” value ([2]; Table 4, 1 month after Gamma irradiation) was 84.26%, the “HPLC (Assay IVM) After irradiation (T = 1 week)” value ([2]; Table 4, 1 week after Gamma irradiation) was 86.9% and the “HPLC (Assay IVM) Before irradiation” value ([2]; Table 4, before irradiation) was 95.2%. For the same compound, the “% API degraded” value ([2]; before vs 1 month after Gamma irradiation) was 10.9%, the “Eradication of the demodex” value (demodex; by month 3 of treatment) was “All subjects had eradication of the demodex” and the “Improvement in signs of ocular inflammation” value (demodex) was “all subjects had an improvement”. For the same compound, the Symptomatic improvement (demodex) was “All but two subjects improved symptomatically”, the “D90 After irradiation (T = 1 week)” value ([3]; 1 week after Gamma irradiation) was 2.53 μm and the “D90 After irradiation (2 M)” value ([3]; after Gamma irradiation, cells marked (2 M) in the T = 1 month column) was 2.41 (2 M) μm. The “D90 Before irradiation” value ([3]; before irradiation) was 2.66 μm, the “XRPD After irradiation (T = 1 month)” value ([4]; 1 month after Gamma irradiation) was “Amorphous” and the “XRPD After irradiation (T = 1 week)” value ([4]; 1 week after Gamma irradiation) was “Amorphous”. The “XRPD Before irradiation” value ([4]; before irradiation) was “Amorphous” and the “Change in TNF-α, IL-1, and IL-6” value [5] was “decrease”.
